Measurements from patent US10501452B2, “Lactam compound derivative and application thereof” (NHWA PHARMA. CORPORATION, priority 2015, dated 2019).
pKi: −log10 of the molar value. Like-named read-outs stand apart in the source and are kept apart here.

What was measured:
D2 = D2 (Rattus norvegicus (Rat), UniProt P61169); assay: D2 receptor binding assay (3H-Spiperone); conditions: for Ki: read-out: Ki (nM) D2, rat striatum membrane, 3H-Spiperone
Protocol: Rats were decapitated. Striatum of brain was rapidly taken on ice, 3 ml of buffer (0.05 M Tris-HCl buffer, containing NaCl 120 mM, KCl 5 mM, MgCl2 1 mM, CaCl2 1 mM) was added, homogenization was conducted, and then 5 ml of buffer was then added. The weight of the homogenized tubes were adjusted using a balance, and centrifugation was conducted. The supernatant was discarded, and 3 ml of buffer was added. Vortex mixer was used for blending, and then 5 ml of buffer was added. Centrifugation was conducted and repeated 3 times. The supernatant was discarded after centrifugation was completed, and the pellets were stored at −80° C. for future use.
Beckman LS-6500 Multi-function Liquid Scintillation Counter was used.
(1) The prepared membrane was applied with appropriate amount of buffer, and homogenizer was used for evenly dispersing. 15 tubes were mixed into a 100 ml container, and appropriate amount of buffer was added to give 50 ml of membrane suspension, which was reserved for future use.
(§2) (2) 100 μL of membrane preparation and 100 μL of buffer were added into each reaction tube.
(3) 100 μL of buffer was added into the total binding tube (TB), 100 μL of Butaclamol (final concentration 10^−5M) was added into the nonspecific binding tube (NB), 100 μL of the test compound (final concentration 10^−5M) was added into the specific binding tube (SB) of each test compound.
(5) Each of the reaction tubes was incubated at 37° C. for 20 min. After the reaction was completed, the bound ligands were rapidly filtered under reduced pressure, and sufficiently washed with ice-chilled assay buffer. The filter was taken out and put into a 3 ml scintillation vial, and 2 ml of toluene scintillation cocktail was added and blended.
(6) The scintillation vials were put into Liquid Scintillation Counter for counting. Inhibition rate(I%)=(Total binding tube cpm−compound cpm)/(Total binding tube cpm−nonspecific binding tube cpm)×100%
Each assay for the compounds was conducted in duplicate for two individual tests.

5-HT1A = 5-HT1A (Rattus norvegicus (Rat), UniProt P19327); assay: 5-HT1A receptor binding assay (3H-8-OH-DPAT); conditions: rat cortex membrane, 3H-8-OH-DPAT
Sequence of 5-HT1A (P19327 whole entry): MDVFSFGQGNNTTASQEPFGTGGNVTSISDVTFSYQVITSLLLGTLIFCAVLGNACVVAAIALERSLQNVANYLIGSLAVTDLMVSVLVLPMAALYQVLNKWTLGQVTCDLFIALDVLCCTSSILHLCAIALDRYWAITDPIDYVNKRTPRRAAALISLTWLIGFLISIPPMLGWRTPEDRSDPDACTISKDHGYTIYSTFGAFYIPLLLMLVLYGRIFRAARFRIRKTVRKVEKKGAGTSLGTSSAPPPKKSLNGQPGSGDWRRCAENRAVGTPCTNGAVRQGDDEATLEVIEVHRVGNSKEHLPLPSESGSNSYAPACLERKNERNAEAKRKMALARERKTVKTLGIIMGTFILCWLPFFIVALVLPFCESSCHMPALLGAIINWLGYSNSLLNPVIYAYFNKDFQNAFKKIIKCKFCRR
Protocol: Rats were decapitated. […] Incubation at 37° C. was conducted for 10 min. […] Centrifugation was conducted and repeated 3 times.
(§1) Materials for the Receptor Binding Assay

5-HT2A = 5-HT2A (Rattus norvegicus (Rat), UniProt P14842); assay: 5-HT2A receptor binding assay ([3H]-Ketanserin); conditions: for Ki: read-out: Ki (nM) 5-HT2A, rat cortex membrane, [3H]-Ketanserin
Sequence of 5-HT2A (P14842 whole entry): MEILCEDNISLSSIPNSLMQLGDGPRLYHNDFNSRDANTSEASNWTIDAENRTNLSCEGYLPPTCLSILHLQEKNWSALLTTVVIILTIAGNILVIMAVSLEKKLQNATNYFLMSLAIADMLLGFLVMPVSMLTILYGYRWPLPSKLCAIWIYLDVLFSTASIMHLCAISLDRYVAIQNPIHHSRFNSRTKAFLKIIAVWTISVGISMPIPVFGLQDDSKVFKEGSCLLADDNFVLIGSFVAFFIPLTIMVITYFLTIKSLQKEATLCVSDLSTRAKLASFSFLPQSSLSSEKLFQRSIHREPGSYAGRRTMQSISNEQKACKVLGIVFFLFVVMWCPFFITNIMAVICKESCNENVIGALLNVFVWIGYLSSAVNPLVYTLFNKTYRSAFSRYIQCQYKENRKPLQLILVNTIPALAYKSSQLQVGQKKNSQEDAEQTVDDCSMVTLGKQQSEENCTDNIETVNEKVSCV
Protocol: Rats were decapitated. Cortex of brain was rapidly taken on ice, and 3 ml of buffer (0.05 M Tris-HCl buffer: 6.05 g of Tris was dissolved in 1000 ml of double-distilled water, and concentrated HCl was used to adjust to pH 7.5) was added, homogenization was conducted, and then 5 ml of buffer was added. Incubation was conducted at 37° C. for 10 min, the weight of the tubes were adjusted using a balance after incubation. Centrifugation was conducted at 12000 rpm, 4° C. for 20 min, the supernatant was discarded, and 3 ml of buffer was added. Vortex mixer was used for blending, and then 5 ml of buffer was added. Centrifugation was conducted (repeated 3 times). After the centrifugation, the supernatant was discarded, and the pellets were stored at −80° C. for future use.
(1) The prepared membrane was applied with buffer, and homogenizer was used for evenly dispersing. 15 tubes were mixed into a 100 ml container, and appropriate amount of buffer was added to give 50 ml of membrane suspension, which was reserved for future use.
as §2
(3) 100 μL of buffer was added into the total binding tube (TB), 100 μL of Methysergide (final concentration 10^−5M) was added into the nonspecific binding tube (NB), 100 μL of the test compound (final concentration 10^−5M) was added into the specific binding tube (SB) of each test compound.
(5) Each of the reaction tubes was incubated at 37° C. for 15 min. After the reaction was completed, the bound ligands were rapidly filtered under reduced pressure, and sufficiently washed with ice-chilled assay buffer. The filter was taken out and put into a 3 ml scintillation vial, and 2 ml of toluene scintillation cocktail was added and blended.
(6) The scintillation vial were put into Liquid Scintillation Counter for counting. Inhibition rate(I%)=(Total binding tube cpm−compound cpm)/(Total binding tube cpm−nonspecific binding tube cpm)×100%

Histamine H1 receptor = Histamine H1 receptor (Cavia porcellus (Guinea pig), UniProt P31389); assay: Histamine H1 receptor binding assay (3H-pyrilamine); conditions: guinea pig cerebellum membrane, 3H-pyrilamine
Sequence of Histamine H1 receptor (P31389 whole entry): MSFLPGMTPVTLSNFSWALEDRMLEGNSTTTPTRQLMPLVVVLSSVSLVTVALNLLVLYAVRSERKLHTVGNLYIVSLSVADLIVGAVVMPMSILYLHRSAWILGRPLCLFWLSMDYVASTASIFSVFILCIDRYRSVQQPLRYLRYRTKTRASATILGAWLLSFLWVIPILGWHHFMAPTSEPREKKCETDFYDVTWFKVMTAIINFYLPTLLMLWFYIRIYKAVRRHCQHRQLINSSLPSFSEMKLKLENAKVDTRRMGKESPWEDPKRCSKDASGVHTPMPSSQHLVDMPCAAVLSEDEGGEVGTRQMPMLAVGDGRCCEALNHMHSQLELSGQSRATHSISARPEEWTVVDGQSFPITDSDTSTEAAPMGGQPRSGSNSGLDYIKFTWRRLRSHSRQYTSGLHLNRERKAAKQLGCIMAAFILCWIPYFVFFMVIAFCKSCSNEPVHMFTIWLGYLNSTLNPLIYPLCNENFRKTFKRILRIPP
Protocol: Preparation of Histamine H1 Receptor Membrane
Guinea pigs were decapitated. […] Vortex mixer was used for blending. Centrifugation was conducted at 48000 g, 4° C. for 10 min. The supernatant was discarded to give pellets, and buffer was added again for washing. Centrifugation was conducted and repeated 3 times.
as §1
(2) 100 μL of membrane preparation was added into each reaction tube.

5-HT7 receptor = 5-HT7 receptor (Rattus norvegicus (Rat), UniProt P32305); assay: 5-HT7 receptor binding assay ([3H]-5-CT); conditions: rat hypothalamus membrane, [3H]-5-CT
Sequence of 5-HT7 receptor (P32305 whole entry): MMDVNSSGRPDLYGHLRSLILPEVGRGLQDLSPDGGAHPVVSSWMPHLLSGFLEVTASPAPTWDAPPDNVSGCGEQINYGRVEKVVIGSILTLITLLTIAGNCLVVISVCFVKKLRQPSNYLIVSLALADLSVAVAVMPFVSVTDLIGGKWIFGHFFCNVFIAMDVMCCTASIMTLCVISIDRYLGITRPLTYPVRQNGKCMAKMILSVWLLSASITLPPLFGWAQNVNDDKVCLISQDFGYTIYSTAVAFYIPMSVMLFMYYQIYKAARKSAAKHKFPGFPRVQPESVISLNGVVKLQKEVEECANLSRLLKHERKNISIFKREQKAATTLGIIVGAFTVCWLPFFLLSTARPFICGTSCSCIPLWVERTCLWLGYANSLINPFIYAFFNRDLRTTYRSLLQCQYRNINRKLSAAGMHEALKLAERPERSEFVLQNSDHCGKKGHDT
Protocol: Adult SD rats were decapitated. […] Centrifugation was conducted (repeated 3 times).
as §1

Sequence of D2 (P61169 whole entry): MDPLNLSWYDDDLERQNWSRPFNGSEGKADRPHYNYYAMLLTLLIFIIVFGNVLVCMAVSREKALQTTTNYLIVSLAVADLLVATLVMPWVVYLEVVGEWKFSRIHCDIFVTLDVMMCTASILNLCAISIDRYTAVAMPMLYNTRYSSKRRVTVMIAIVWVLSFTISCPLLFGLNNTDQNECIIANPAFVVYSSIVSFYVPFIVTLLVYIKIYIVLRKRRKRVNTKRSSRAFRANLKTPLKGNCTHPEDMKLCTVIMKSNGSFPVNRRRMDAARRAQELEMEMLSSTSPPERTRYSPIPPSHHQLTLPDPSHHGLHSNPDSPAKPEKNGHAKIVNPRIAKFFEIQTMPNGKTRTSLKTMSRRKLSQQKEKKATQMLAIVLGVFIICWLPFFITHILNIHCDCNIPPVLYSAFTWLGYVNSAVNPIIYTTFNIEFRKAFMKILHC

Compound: CN1CCc2ccc(OCCCN3CCN(c4ccc5ccccc5n4)CC3)cc2C1=O [Compound 15, 7-(3-(4-(quinolin-2-yl)piperazin-1-yl)propoxy)-2-methyl-3,4-dihydroisoquinolin-1(2H)-one]
- Ki (D2): 1990 nM
- Ki (5-HT1A): 157 nM
- Ki (5-HT2A): 468 nM

Compound: O=C1CCc2ccc(OCCCCN3CCC(c4noc5cc(F)ccc45)CC3)cc2N1 [E, reference compound]
- Ki (Histamine H1 receptor): 178 nM
- pKi (D2): 8.25
- Ki (5-HT1A): 23.2 nM
- pKi (5-HT2A): 7.90
- Ki (5-HT7 receptor): 35.6 nM

Compound: Cn1cnc2ccc(OCCCCN3CCN(c4ccccn4)CC3)cc2c1=O [Compound 30, 3-methyl-6-(4-(4-(pyridin-2-yl)piperazin-1-yl)butoxy)quinazolin-4(3H)-one]
- pKi (D2): < 5.70
- Ki (5-HT1A): > 2000 nM
- pKi (5-HT2A): < 5.70

Compound: CN1CCc2ccc(OCCCN3CCN(c4cccc5sccc45)CC3)cc2C1=O [B, reference compound]
- Ki (Histamine H1 receptor): 139 nM
- Ki (5-HT7 receptor): 579 nM

Compound: CN1CCc2ccc(OCCCN3CCN(c4ccc(F)cc4)CC3)cc2C1=O [Compound 19, 7-(3-(4-(4-fluorophenyl)piperazin-1-yl)propoxy)-2-methyl-3,4-dihydroisoquinolin-1(2H)-one]
- Ki (D2): 1650 nM
- Ki (5-HT1A): 746 nM
- Ki (5-HT2A): 688 nM

Compound: CN1CCc2ccc(OCCCN3CCN(c4ccc(Cl)cc4)CC3)cc2C1=O [Compound 17, 7-(3-(4-(4-chlorophenyl)piperazin-1-yl)propoxy)-2-methyl-3,4-dihydroisoquinolin-1(2H)-one]
- Ki (D2): > 2000 nM
- Ki (5-HT1A): > 2000 nM
- Ki (5-HT2A): > 2000 nM

Compound: CN1CCc2ccc(OCCCCN3CCC(c4noc5cc(F)ccc45)CC3)cc2C1=O [Compound 1, 7-(4-(4-(6-fluorobenzo[d]isoxazol-3-yl)piperidin-1-yl)butoxy)-2-methyl-3,4-dihydroisoquinolin-1(2H)-one]
- Ki (D2): 12.5 nM
- Ki (5-HT1A): 15.8 nM
- Ki (5-HT2A): 18.9 nM
- Ki (5-HT7 receptor): 12.5 nM

Compound: CN1CCc2ccc(OCCCN3CCN(c4ccccc4F)CC3)cc2C1=O [Compound 20, 7-(3-(4-(2-fluorophenyl)piperazin-1-yl)propoxy)-2-methyl-3,4-dihydroisoquinolin-1(2H)-one]
- Ki (Histamine H1 receptor): > 2000 nM
- Ki (D2): 54.8 nM
- Ki (5-HT1A): 24.5 nM
- Ki (5-HT2A): 32.1 nM
- Ki (5-HT7 receptor): 29.9 nM

Compound: CN1CCc2ccc(OCCCN3CCC(C(=O)c4ccc(F)cc4)CC3)cc2C1=O [Compound 25, 7-(3-(4-(4-fluorobenzoyl)piperidin-1-yl)propoxy)-2-methyl-3,4-dihydroisoquinolin-1(2H)-one]
- Ki (Histamine H1 receptor): > 2000 nM
- Ki (D2): 32.8 nM
- Ki (5-HT1A): 17.6 nM
- Ki (5-HT2A): 21.7 nM
- Ki (5-HT7 receptor): 10.8 nM

Compound: COc1ccccc1N1CCN(CCCCOc2ccc3c(c2)C(=O)N(C)CC3)CC1 [Compound 2, 7-(4-(4-(2-methoxyphenyl)piperazin-1-yl)butoxy)-2-methyl-3,4-dihydroisoquinolin-1(2H)-one]
- Ki (D2): 120 nM
- Ki (5-HT1A): 11.3 nM
- Ki (5-HT2A): 36.8 nM

Compound: O=C1NCCc2ccc(OCCCN3CCN(c4ccc5sccc5c4)CC3)cc21 [C, reference compound]
- Ki (Histamine H1 receptor): 138 nM
- pKi (D2): 7.45
- Ki (5-HT7 receptor): 500 nM

Compound: CCN1CCc2ccc(OCCCN3CCC(c4noc5cc(F)ccc45)CC3)cc2C1=O [Compound 7, 7-(3-(4-(6-fluorobenzo[d]isoxazol-3-yl)piperidin-1-yl)propoxy)-2-ethyl-3,4-dihydroisoquinolin-1(2H)-one]
- Ki (Histamine H1 receptor): > 2000 nM
- Ki (D2): 13.1 nM
- Ki (5-HT1A): 1.9 nM
- Ki (5-HT2A): 0.9 nM
- Ki (5-HT7 receptor): 12.7 nM

Compound: Cc1nc2ccc(OCCCN3CCN(c4cccc(C(F)(F)F)c4)CC3)cc2c(=O)n1C [Compound 31, 2,3-dimethyl-6-(3-(4-(3-(trifluoromethyl)phenyl)piperazin-1-yl)propoxy)quinazolin-4(3H)-one]
- Ki (Histamine H1 receptor): > 2000 nM
- Ki (D2): 21.8 nM
- Ki (5-HT1A): 19 nM
- Ki (5-HT2A): 9.8 nM
- Ki (5-HT7 receptor): 8.3 nM

Compound: CN1COc2ccc(OCCCN3CCC(c4noc5cc(F)ccc45)CC3)cc2C1=O [Compound 11, 6-(3-(4-(6-fluorobenzo[d]isoxazol-3-yl)piperidin-1-yl)propoxy)-3-methyl-2H-benzo[e][1,3]oxazin-4(3H)-one]
- Ki (Histamine H1 receptor): > 2000 nM
- Ki (D2): 13.9 nM
- Ki (5-HT1A): 24.6 nM
- Ki (5-HT2A): 3.6 nM
- Ki (5-HT7 receptor): 11.2 nM

Compound: CN1CCc2ccc(OCC(O)CN3CCC(c4noc5cc(F)ccc45)CC3)cc2C1=O (centres unmarked) [Compound 4, 7-(3-(4-(6-fluorobenzo[d]isoxazol-3-yl)piperidin-1-yl)-2-hydroxypropoxy)-2-methyl-3,4-dihydroisoquinolin-1(2H)-one]
- Ki (Histamine H1 receptor): > 2000 nM
- Ki (D2): 15.1 nM
- Ki (5-HT1A): 3.9 nM
- Ki (5-HT2A): 15.9 nM
- Ki (5-HT7 receptor): 10.2 nM

Compound: CN1CCc2ccc(OCCCCN3CCN(c4cccc(C(F)(F)F)c4)CC3)cc2C1=O [Compound 3, 2-methyl-7-(4-(4-(3-(trifluoromethyl)phenyl)piperazin-1-yl)butoxy)-3,4-dihydroisoquinolin-1 (2H)-one]
- Ki (D2): 17.2 nM
- Ki (5-HT1A): 11.8 nM
- Ki (5-HT2A): 9.9 nM
- Ki (5-HT7 receptor): 23.6 nM

Compound: CC1CN(C)C(=O)c2cc(OCCCN3CCC(c4noc5cc(F)ccc45)CC3)ccc21 (centres unmarked) [Compound 10, 7-(3-(4-(6-fluorobenzo[d]isoxazol-3-yl)piperidin-1-yl)propoxy)-2,4-dimethyl-3,4-dihydroisoquinolin-1(2H)-one]
- Ki (Histamine H1 receptor): > 2000 nM
- Ki (D2): 5.8 nM
- Ki (5-HT1A): 4.6 nM
- Ki (5-HT2A): 12.9 nM
- Ki (5-HT7 receptor): 8.4 nM

Compound: COc1ccc(N2CCN(CCCOc3ccc4c(c3)C(=O)N(C)CC4)CC2)cc1 [Compound 21, 7-(3-(4-(4-methoxyphenyl)piperazin-1-yl)propoxy)-2-methyl-3,4-dihydroisoquinolin-1(2H)-one]
- Ki (D2): > 2000 nM
- Ki (5-HT1A): > 2000 nM
- Ki (5-HT2A): > 2000 nM

Compound: CN1CCc2c(F)cc(OCCCN3CCC(c4noc5cc(F)ccc45)CC3)cc2C1=O [Compound 9, 5-fluoro-7-(3-(4-(6-fluorobenzo[d]isoxazol-3-yl)piperidin-1-yl)propoxy)-2-methyl-3,4-dihydroisoquinolin-1(2H)-one]
- Ki (Histamine H1 receptor): > 2000 nM
- Ki (D2): 3.1 nM
- Ki (5-HT1A): 3.9 nM
- Ki (5-HT2A): 3.7 nM
- Ki (5-HT7 receptor): 7.9 nM

Compound: CN1CCc2ccc(OCCCN3CCN(c4ccccc4Cl)CC3)cc2C1=O [Compound 18, 7-(3-(4-(2-chlorophenyl)piperazin-1-yl)propoxy)-2-methyl-3,4-dihydroisoquinolin-1(2H)-one]
- Ki (D2): > 2000 nM
- Ki (5-HT1A): > 2000 nM
- Ki (5-HT2A): > 2000 nM

Compound: Cn1cnc2ccc(OCCCCN3CCc4ccccc4C3)cc2c1=O [Compound 27, 6-(4-(3,4-dihydroisoquinolin-2(1H)-yl)butoxy)-3-methylquinazolin-4(3H)-one]
- Ki (D2): 500 nM
- Ki (5-HT1A): 57.9 nM
- Ki (5-HT2A): 66.2 nM

Compound: Cc1cc(OCCCN2CCC(c3noc4cc(F)ccc34)CC2)cc2c1CCN(C)C2=O [Compound 8, 7-(3-(4-(6-fluorobenzo[d]isoxazol-3-yl)piperidin-1-yl)propoxy)-2,5-dimethyl-3,4-dihydroisoquinolin-1(2H)-one]
- Ki (Histamine H1 receptor): > 2000 nM
- Ki (D2): 8.7 nM
- Ki (5-HT1A): 2.8 nM
- Ki (5-HT2A): 2.4 nM
- Ki (5-HT7 receptor): 6.7 nM

Compound: CN1CCc2ccc(OCCCN3CCN(c4ccccc4)CC3)cc2C1=O [Compound 16, 2-methyl-7-(3-(4-phenylpiperazin-1-yl)propoxy)-3,4-dihydroisoquinolin-1(2H)-one]
- Ki (D2): > 2000 nM
- Ki (5-HT1A): 569 nM
- Ki (5-HT2A): 372 nM

Compound: Cn1cnc2ccc(OCCCCN3CCN(c4ccc(F)cc4)CC3)cc2c1=O [Compound 29, 6-(4-(4-(4-fluorophenyl)piperazin-1-yl)butoxy)-3-methylquinazolin-4(3H)-one]
- Ki (D2): > 2000 nM
- Ki (5-HT1A): 259 nM
- Ki (5-HT2A): 347 nM

Compound: O=C1NCCc2ccc(OCCCN3CCC(c4noc5cc(F)ccc45)CC3)cc21 [Compound 12, 7-(3-(4-(6-fluorobenzo[d]isoxazol-3-yl)piperidin-1-yl)propoxy)-3,4-dihydroisoquinolin-1(2H)-one]
- Ki (Histamine H1 receptor): > 2000 nM
- Ki (D2): 10.4 nM
- Ki (5-HT1A): 19.3 nM
- Ki (5-HT2A): 5.5 nM
- Ki (5-HT7 receptor): 8.9 nM

Compound: Cn1cnc2ccc(OCCCCN3CCN(Cc4ccccc4)CC3)cc2c1=O [Compound 26, 6-(4-(4-benzylpiperazin-1-yl)butoxy)-3-methylquinazolin-4(3H)-one]
- Ki (D2): > 2000 nM
- Ki (5-HT1A): 56.9 nM
- Ki (5-HT2A): > 2000 nM

Compound: CN1CCc2ccc(OCCCN3CCN(c4ccccn4)CC3)cc2C1=O [Compound 23, 2-methyl-7-(3-(4-(pyridin-2-yl)piperazin-1-yl)propoxy)-3,4-dihydroisoquinolin-1(2H)-one]
- Ki (D2): > 2000 nM
- Ki (5-HT1A): > 2000 nM
- Ki (5-HT2A): 369 nM

Compound: Cn1c(=O)c2cc(OCCCN3CCN(c4cccc5sccc45)CC3)ccc2n(C)c1=O [D, reference compound]
- Ki (Histamine H1 receptor): 154 nM
- Ki (D2): 25.5 nM
- Ki (5-HT7 receptor): 606 nM

Compound: CN1CCc2ccc(OCCCN3CCN(c4cccc5ccccc45)CC3)cc2C1=O [Compound 6, 2-methyl-7-(3-(4-(naphthalen-1-yl)piperazin-1-yl)propoxy)-3,4-dihydroisoquinolin-1(2H)-one]
- Ki (D2): 134 nM
- Ki (5-HT1A): 46.6 nM
- Ki (5-HT2A): 57 nM

Compound: CN1CCc2ccc(OCCCN3CCN(c4ccc5c(c4)OCO5)CC3)cc2C1=O [Compound 13, 7-(3-(4-(benzo[d][1,3]dioxol-5-yl)piperazin-1-yl)propoxy)-2-methyl-3,4-dihydroisoquinolin-1 (2H)-one]
- Ki (D2): 235 nM
- Ki (5-HT1A): 12.8 nM
- Ki (5-HT2A): 3.6 nM
